Assay results published in patent US20090105118A1, “Preparation and applications of novel complexes made by gamma-polyglutamic acid and cisplatin” (priority 2007, published 2009).

Experiments:
[1] = test system: Human breast cancer cells Bcap-37; test: Bcap-37 xenograft model, survival and body weight; format: in vivo, BALB/C female SKID mouse; conditions: Bcap-37 xenograft mice, equivalent of 4 mg/kg cisplatin, tail vein at 0 and 5 days
Procedure: Human breast cancer cells Bcap-37 in DMEM with 10% […] were cultured at 37° C. and 5% CO2. 5×10^6 Bcap cells were injected in each of BALB/C female SKID mouse (18 mice, 4 week old, 20 g each). After 7 days the mice were randomly divided into 3 groups, 6 mice per group. The first group was treated with saline, the second group was treated with cisplatin, and the third group was treated with γ-PGA-CDDP. γ-PGA-CDDP complex (at equivalent of 4 mg/kg cisplatin) was injected in a tail vein at 0 and 5 days. The survival and body weight was recorded. The results are shown in FIG. 12 and FIG. 13 which are comparisons of the toxicity of γ-PGA-CDDP and CDDP based on the survival and body weight of BALB/C female mice.

[2] = In vivo toxicity study in healthy mice (survival, body weight); conditions: Kun Ming mice, 5 mg/kg tail vein at 0, 5 and 10 days
Procedure: 20 healthy Kun Ming mice were randomly divided (10 each for male and female) into two groups. Cisplatin and γ-PGA-CDDP was individually injected in each group in a tail vein. The injections were done at 0, 5, and 10 days at 5 mg/kg. The survival and body weight of the mice were recorded. The results are shown in FIG. 10 and FIG. 11 which are comparisons of the toxicity of γ-PGA-CDDP and CDDP based on the survival of China KM mice and based on the body weight of China KM mice.

Lung cancer cells = conditions: mice; PG-TXL injected at 120 mg/kg; paclitaxel used alone; cited from earlier work

Compound	body weight change (toxicity) [1]	body weight change (in vivo toxicity) [2]	mice died ([2]; after 15 days) [%]	reduction of lung cancer cells (Lung cancer cells) [%]
cis-daimminedichloroplatinum(II) [cisplatin]	obvious decrease of body weight	reduced	90	
CC(=O)O[C@H]1C(=O)[C@@]2(C)[C@H]([C@H](OC(=O)c3ccccc3)[C@]3(O)C[C@H](OC(=O)[C@H](O)[C@@H](NC(=O)c4ccccc4)c4ccccc4)C(C)=C1C3(C)C)[C@]1(OC(C)=O)CO[C@@H]1C[C@@H]2O [paclitaxel]				58
